In brackets after ≈: the same amount, converted by molar mass. Read-outs that look alike come from different tables or passages of the source. No end group written: not given here.
Key:
[1] = target: T1, enzyme I (Escherichia coli, UniProt P08839); assay: biochemical; parameters: species or system E. coli
T1 construct: 3 µM each of purified HPr and enzyme I (Mao et al., 1995); made in house
Text: Fig. 2. Assays for the screening, selection and characterization of inhibitory compounds from combinatorial libraries. Reaction products that can be determined experimentally are boxed. The inhibitory compound X can be in soluble form, immobilized on a filamentous phage, or bound to a microtiter well. The transporter for GlcNAc (shaded in grey) contains the IIA, IIB and IIC functional units as domains of a single polypeptide chain. • (a) Binding of Enzyme I to immobilized ligands, e.g. filamentous phages from a phage display library or synthetic peptides from a combinatorial peptide library was detected using [^1251]-Enzyme I and autoradiography. • (b) Phosphorylation by Enzyme I. To identify peptides and filamentous phages displaying a peptide which can be phosphorylated by Enzyme 1, support based peptide libraries and immobilized peptide-displaying phages were incubated over night with enzyme I in the presence of [^32P]phosphoenolpyruvate, and the phosphorylated species were detected with a PhosphorImager. […] A conventional and well established assay to colorimetrically detect the formation of inorganic phosphate has been adapted to the specific needs. The assay can be performed in microtiter plates and quantitated with a microplate photoreader. Another assay to monitor phosphatase activity of soluble compounds is based on the detection of pyruvate which is continuously produced from phosphoenolpyruvate whenever enzyme I is dephosphorylated. The enzyme I-specific phosphatase activity of soluble compounds can be detected from the pyruvate burst. The rate of pyruvate formation is monitored with lactate dehydrogenase and NADH. The assay can be performed in microtiter plates and quantitated with a microplate photoreader. • (d) Inhibition of in vitro PTS activity. The inhibitory activity of soluble compounds can be measured quantitatively in the sugar phosphotransferase assay in the presence of the purified PTS proteins and with [^14C]GlcNAc ([^14C]N-acetyl-glucosamine) or (14C] Glc ([^14C]glucose) as terminal phosphate acceptor (Emi et al., 1982). • (e) Inhibition of PTS activity in bacteria. Compounds that specifically interfere with the PTS can also be detected in bacteria. Indicator E. coli (or any other bacteria) will be plated an two defined minimal salts media containing either glucose or a nonPTS Substrate e.g. lactose as the only carbon source. Compounds from chemical libraries are applied to both cultures.
Inhibition of phosphotransferase activity by soluble peptides. This assay measures the inhibition of enzyme I dependent sugar phosphorylation activity. […] The purified N-acetylglucosamine transporter (II^GlcNAc) of E.coli (Mukhija and Erni, 1996) was used as the sugar specific component. The reaction mixture contained per 100 µl, 100 µg phosphatidyl glycerol from egg yolk (Sigma), 50 mM KPi, pH 7.5, 2.5 mM dithiothreitol, 2.5 mM NaF, 5 mM MgCl2, […] (potassium salt, Sigma), 0.5 mM [U-^14C]GlcNAc (New England Nuclear; 56.3 mCi/mmol, diluted to 1000 cpm/nmol), and 3 µM each of purified HPr and enzyme I (Mao et al., 1995). The reaction was started by addition of 0.1 µg of II^GlcNAc. After incubation for 30 min at 37°C, the reaction was stopped by adding 1 ml ice-cold water. GlcNAc-6-Phosphate was separated from free GlcNAc by anion-exchange chromatography on AG-1-X2 (50-100 mesh, Biorad). Activity is expressed as nmoles of sugar-P formed after 30 min. The HPr concentration was adjusted such that it was rate limiting in the overall phosphotransferase reaction. The inhibitory peptides were added to concentrations of 25 µM to 10 mM. Phosphorylation of GlcNAc in the absences of peptide was taken as 100%.

[2] = system: E. coli K-12 UT580; assay: microbe, parasite or virus in culture; conditions: Escherichia coli, K12UT580, 24 h, read-out: growth inhibition MIC
Procedure: Growth inhibition assay. An over night culture of E. coli K-12 UT580 grown in LB-medium was diluted 1:30 into soft agar (0.7% agarose in LB broth) at 40°C, and 3 ml of the diluted cell suspension were spread an LB agar plates. Filter discs (4.4 mm diameter) were placed in regular intervals on the solidified top agar. To each filter was added 10 µl of one of the different peptide stock solutions (20 µM to 80 µM). The agar plates were incubated over night at 37°C. The area of the clear zone around each filter disc was determined. The clear area is taken as a measure for the growth inhibitory activity of the peptide.
Growth inhibition of E. coli K12 UT580. Peptides were added to filter discs and placed onto a cell culture in LB soft agar. The clear zones are indicative of growth inhibition (panel A).

[3] = system: E. coli K-12 UT580; assay: Growth inhibition assay (filter discs on LB soft agar); format: cell-based; conditions: E. coli K-12 UT580, LB agar, over night at 37°C
Text: Fig. 4. Growth inhibition of E. coli K12 UT580. […]

[4] = peptides identified by phage display, 30 min at 37°C, HPr rate limiting, read-out: inhibition IC50
[5] = peptides from support-based combinatorial libraries, 30 min at 37°C, HPr rate limiting, read-out: inhibition IC50

| Molecule | IC50 [1, 4] | other results |
| --- | --- | --- |
| RLHYLF [compound 21, RLHYLF] | 375 µM | – |
| MSRHRN [compound 29, MSRHRN] | 760 µM | – |
| RHITSL [compound 27, RHITSL] | 650 µM | – |
| CN(C)[C@@H]1C(O)=C(C(N)=O)C(=O)[C@@]2(O)C(O)=C3C(=O)c4c(O)cccc4[C@@](C)(O)[C@H]3C[C@@H]12 [tetracycline] | – | MIC [2]: 2.5 µM (≈ 1.11 µg/mL) |
| RIHFIPRRGR [compound 20] | 280 µM | – |
| KMSRHRKPGA [compound 16] | 100 µM | – |
| KKWHRRKK [compound 7] | – | IC50 [1, 5]: 300 µM |
| RHWSIF [compound 24, RHWSIF] | 400 µM | – |
| KKFALRK [compound 2, KKFALRK] | – | inhibition IC50 ([1]; peptides from support-based combinatorial libraries, 30 min at 37°C, HPr rate limiting): none |
| KISRHGKRGK [compound 18] | 140 µM | – |
| RHRTLF [compound 25, RHRTLF] | 410 µM | – |
| KKWHLRKR [compound 5] | – | IC50 [1, 5]: 30 µM; growth inhibition MIC [3]: 63.0 µM |
| KKFHLRK [peptide 1, KKFHLRK] | – | IC50 [1]: 150 µM; growth inhibition MIC [3]: 125.8 µM |
| GLRFGKTRVHYLVLG [compound 14] | 25 µM | – |
| KKFDLRK [compound 3, KKFDLRK] | – | IC50 [1, 5]: 820 µM |
| SGRKSTRVHHWLLVL [compound 15] | 60 µM | – |
| DGARLHYLF [compound 22] | 1200 µM | – |
| Ac-DGARLHYLF [compound 23] | 7600 µM | – |
| KGWHKRKK [compound 6] | – | IC50 [1, 5]: 530 µM |
| RHITLF [compound 28, RHITLF] | 1380 µM | – |
| KKFHIRKR [compound 9] | – | IC50 [1, 5]: 160 µM |
| RHYLLF [compound 26, RHYLLF] | 500 µM | – |
| KKWHKRKK [compound 8] | – | IC50 [1, 5]: 440 µM |
| KISRHGRPTG [compound 19] | 1070 µM | – |

From patent EP0866075B1, “Method to treat microbial infections by uncoupling of phosphotransferase system and appropriate agents therefor” (Arpida AG,, priority 1997, dated 1998)
